Experimental findings from patent EP0450100A1, “PHYSIOLOGICALLY ACTIVE PEPTIDE” (MEIJI SEIKA KAISHA LTD., priority 1989, dated 1991) are described below.

This experiment relates to canine femoral artery. Kind of experiment: Influence of the peptides on the blood flow passing through canine femoral artery (VIP bioassay method of Said and Mutt). It counts as in vivo. The following applies: anesthetized beagles; 200 p mol/kg injected into the femoral artery; 0.5 to 4 minutes after injection; conclusion from Table 1 and Table 2. As to the method:
The above-mentioned influence was estimated according to the VIP bioassay method proposed by Said and Mutt [see "Nature" 225, 863-864 (1970)]. After three mature beagles having the body weight of 10 kg were fasted for 18 hours, they were anesthetized with thiamylal (10 mg/kg) and Nembutal ([…]). During the experiment, physiological saline was continuously injected (2 mℓ/min.) into a vein of each beagle and the body temperature of the beagle was maintained at 37-38°C by an electric heater. The femoral artery was surgically exposed, and a polyethylene tube filled with heparin-added physiological saline was inserted in and fixed to a muscle branch of the femoral artery so that the polyethylene tube could be used as an injection route for each peptide under test. A probe of an electro-magnetic blood flowmeter was attached to the femoral artery on a peripheral side of the muscle branch so that the average flow rate of blood through the artery was recorded as time-dependent variations on a polygraphy.
A solution of 10 µg of each tested polypeptide dissolved in 25 µℓ of 0.01 N HCl was diluted with physiological saline to prepare an injectable solution of the peptide. The injectable solution was injected into the artery by means of a peristaltic pump. Each peptide was injected at the dose of 200 p mol/kg. Tested peptides included the following compounds: Compound 1: Hd(1-33)-NH2 [the invention peptide of formula (Ic)] Compound 2: Hd(1-31)-NH₂ [the invention peptide of formula (Ia)] Compound 3: VIP(1-28)-Hd(29-35)-NH₂ [the invention peptide of formula (III)] Compound 4: VIP(1-11)-Hd(12-31)-NH₂ [the invention peptide of formula (II)]
Upon elapsed times of 0.5 minute, 1 minute, 2 minutes, 3 minutes and 4 minutes after the injection of each peptide under test,the blood flow rate was measured. Increases in the femoral arterial blood flow rate (mℓ/min.) as comapred with the basal level of blood flow rate were calculated. It may be added that the test results of Table 1 and those of Table 2 were obtained through tests which were conducted by the same method but at different times.

No end group written: not given here.

Consider “HSDAIFTQQYSKLLAKLALQKYLASILGSRT-NH2 [Compound 2, Hd(1-31)-NH₂]”, for which the “activity of increasing the blood flow rate (femoral arterial blood flow rate) compared with helodermin” value is given as “enhanced activity of increasing the blood flow rate over helodermin” and the “sustaining of the blood-flow-rate-increasing activity compared with helodermin” value is recorded as “effects of sustaining the blood-flow-rate-increasing activity in comparison with helodermin”.
As to “HSDAIFTQQYSKLLAKLALQKYLASILGSRTSP-NH2 [Compound 1, Hd(1-33)-NH₂]”, the “activity of increasing the blood flow rate (femoral arterial blood flow rate) compared with helodermin” value is “enhanced activity of increasing the blood flow rate over helodermin” and the “sustaining of the blood-flow-rate-increasing activity compared with helodermin” value is “effects of sustaining the blood-flow-rate-increasing activity in comparison with helodermin”.
